From patent publication US6491922B1, “Methods and compounds for treating autoimmune and vascular disease” (Cornell Research Foundation, Inc., priority 1996, dated 2002)

Tested on: HIV p24 antigen, U1 cells
Assay: HIV p24 antigen production in chronically HIV-infected U1 cells
Format: cell-based
Conditions: 72 h
Experimental: LPG, the major surface molecule of Leishmania, has macrophage deactivating functions. Based on the ability of LPG to suppress the generation of ROI and cytokine gene expression, we evaluated the potential that LPG may similarly suppress HIV production. FIGS. 27A-D illustrate the effect of 2 μM LPG pretreatment for 2 h on the induction HIV from chronically HIV-infected monocytic and T cell lines respectively, U1 and ACH-2 cells. LPG treatment of U1 cells for 72 h inhibited basal production of HIV p24 antigen at basal and induction in response to PMA, TNF-α and LPS by 90%, 82%, 60% and 66%, respectively (FIGS. 27A, B). The suppression of HIV p24 antigen production was time-dependent (FIG. 27B). […] The inhibition was also time-dependent. The results are the mean of 2 separate experiments and the SD was less than 10%.

Which “inhibition of HIV p24 antigen induction in response to LPS” value (2 μM LPG pretreatment 2 h) does the source give for lipophosphoglycan [LPG] here?
The value was 66%.

And the “inhibition of HIV p24 antigen induction in response to PMA” value (2 μM LPG pretreatment 2 h)?
The value was 82%.

And the “inhibition of HIV p24 antigen induction in response to TNF-α” value (2 μM LPG pretreatment 2 h)?
Its value is 60%.

And the “inhibition of basal production of HIV p24 antigen” value (2 μM LPG)?
Its value is 90%.
